# Data taken from US9302999B2, “Substituted triazoles as herbicides” (E. I. DU PONT DE NEMOURS AND COMPANY, priority 2012, dated 2016).
# Columns and labels:
# Format in all cases: in vivo
# [1] = tested on: corn (Zea mays); assay: Test A pre-/postemergence: corn; details: for Corn plant response rating: Postemergence; for Plant response rating, Corn: Preemergence
# Summary of the method: (§1)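 Injury is scored visually on a scale where 0 means no effect and 100 complete control, comparing treated with untreated plants after approximately ten greenhouse days. Both preemergence and postemergence applications are made at the same time.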
# [2] = tested on: kochia (Kochia scoparia); assay: Test C pre-/postemergence: kochia
# Summary of the method: (§2)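 Visual injury scored 0–100 (100 = complete control) against untreated controls after 13–15 greenhouse days. Surfactant-containing solvent formulations applied either to soil after sowing (loam/sand) or over 1- to 4-leaf plants, 2–18 cm tall.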
# [3] = tested on: barnyardgrass (Echinochloa crus-galli); assay: Test A pre-/postemergence: barnyardgrass; details: for Barnyardgrass plant response rating: Postemergence; for Plant response rating, Barnyardgrass: Preemergence
# Summary of the method: as §1
# [4] = tested on: lambsquarters (Chenopodium album); assay: Test C pre-/postemergence: lambsquarters
# Summary of the method: as §2
# [5] = tested on: johnsongrass (Sorghum halepense); assay: Test C pre-/postemergence: johnsongrass
# Summary of the method: as §2
# [6] = tested on: velvetleaf (Abutilon theophrasti); assay: Test C pre-/postemergence: velvetleaf
# Summary of the method: as §2
# [7] = tested on: galium (catchweed bedstraw, Galium aparine); assay: Test C pre-/postemergence: galium
# Summary of the method: as §2
# [8] = tested on: rice (Oryza sativa); assay: Test B flooded paddy: rice; details: Flood; 250 g ai/ha; applied to paddy water at 2-leaf stage; visually evaluated after 13 to 15 days
# Summary of the method: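 Visual ratings (0 = no effect, 100 = complete control) versus untreated controls were taken 13–15 days after treatment of greenhouse plants. Treatment was added to paddy water held at 3 cm depth on 2-leaf-stage seedlings.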
# [9] = tested on: morningglory (Ipomoea spp.); assay: Test A pre-/postemergence: morningglory; details: for Morningglory plant response rating: Postemergence; for Plant response rating, Morningglory: Preemergence
# Summary of the method: as §1
# [10] = tested on: ragweed (common ragweed, Ambrosia elation); assay: Test C pre-/postemergence: ragweed
# Summary of the method: as §2
# [11] = 125 g ai/ha, 0 to 100 scale, 0 is no effect, 100 is complete control
# [12] = 500 g ai/ha, visual rating on 0 to 100 scale (0 no effect, 100 complete control), approximately ten days
# [13] = 125 g ai/ha, 0 to 100 scale (0 no effect, 100 complete control)
# [14] = 500 g ai/ha, 0 to 100 scale, 0 is no effect, 100 is complete control
# [15] = Postemergence, 31 g ai/ha, scale 0 to 100 (0 no effect, 100 complete control)
# [16] = Postemergence, 62 g ai/ha, scale 0 to 100 (0 no effect, 100 complete control)
# [17] = Postemergence, 125 g ai/ha, scale 0 to 100, 0 no effect, 100 complete control
# [18] = Postemergence, 250 g ai/ha, scale 0 to 100
# [19] = Preemergence, 31 g ai/ha, scale of 0 to 100, 0 is no effect, 100 is complete control
# [20] = Preemergence, 62 g ai/ha, scale of 0 to 100, 0 is no effect, 100 is complete control
# [21] = Preemergence, 125 g ai/ha, scale 0 to 100, 0 no effect, 100 complete control
# [22] = Preemergence, 250 g ai/ha, scale 0 to 100, 0 no effect, 100 complete control
compound,measurement,setting,value
Fc1ccc(-n2nc(Cc3ccnc(C(F)(F)F)c3)c(OC(F)F)n2)cc1 [Compound 25],Corn plant response rating,[1]; [11],30
same,Corn plant response rating,[1]; [12],30
same,"Plant response rating, Corn",[1]; [13],10
same,"Plant response rating, Corn",[1]; [14],30
same,"Plant response rating, Kochia",[2]; [15],75
same,"Plant response rating, Kochia",[2]; [16],80
same,"Plant response rating, Kochia",[2]; [17],90
same,"Plant response rating, Kochia",[2]; [18],90
same,"Plant response rating, Kochia",[2]; [19],10
same,"Plant response rating, Kochia",[2]; [20],40
same,"Plant response rating, Kochia",[2]; [21],55
same,"Plant response rating, Kochia",[2]; [22],85
same,Barnyardgrass plant response rating,[3]; [11],50
same,Barnyardgrass plant response rating,[3]; [12],90
same,"Plant response rating, Barnyardgrass",[3]; [13],80
same,"Plant response rating, Barnyardgrass",[3]; [14],90
same,"Plant response rating, Lambsquarters",[4]; [15],70
same,"Plant response rating, Lambsquarters",[4]; [16],80
same,"Plant response rating, Lambsquarters",[4]; [17],98
same,"Plant response rating, Lambsquarters",[4]; [18],98
same,"Plant response rating, Lambsquarters",[4]; [19],90
same,"Plant response rating, Lambsquarters",[4]; [20],90
same,"Plant response rating, Lambsquarters",[4]; [21],98
same,"Plant response rating, Lambsquarters",[4]; [22],98
same,"Plant response rating, Johnsongrass",[5]; [15],5
same,"Plant response rating, Johnsongrass",[5]; [16],5
same,"Plant response rating, Johnsongrass",[5]; [17],10
same,"Plant response rating, Johnsongrass",[5]; [18],15
same,"Plant response rating, Johnsongrass",[5]; [19],5
same,"Plant response rating, Johnsongrass",[5]; [20],30
same,"Plant response rating, Johnsongrass",[5]; [21],65
same,"Plant response rating, Johnsongrass",[5]; [22],98
same,"Plant response rating, Velvetleaf",[6]; [15],15
same,"Plant response rating, Velvetleaf",[6]; [16],15
same,"Plant response rating, Velvetleaf",[6]; [17],45
same,"Plant response rating, Velvetleaf",[6]; [18],50
same,"Plant response rating, Velvetleaf",[6]; [19],0
same,"Plant response rating, Velvetleaf",[6]; [20],5
same,"Plant response rating, Velvetleaf",[6]; [21],15
same,"Plant response rating, Velvetleaf",[6]; [22],70
same,"Plant response rating, Galium",[7]; [15],50
same,"Plant response rating, Galium",[7]; [16],50
same,"Plant response rating, Galium",[7]; [17],55
same,"Plant response rating, Galium",[7]; [18],55
same,"Plant response rating, Galium",[7]; [19],0
same,"Plant response rating, Galium",[7]; [20],15
same,"Plant response rating, Galium",[7]; [21],80
same,"Plant response rating, Galium",[7]; [22],98
same,"Plant response rating, Rice (0 to 100 scale, 0 is no effect, 100 is complete control)",[8],35
same,Morningglory plant response rating,[9]; [11],100
same,Morningglory plant response rating,[9]; [12],100
same,"Plant response rating, Morningglory",[9]; [13],30
same,"Plant response rating, Morningglory",[9]; [14],80
same,"Plant response rating, Ragweed",[10]; [15],50
same,"Plant response rating, Ragweed",[10]; [16],50
same,"Plant response rating, Ragweed",[10]; [17],60
same,"Plant response rating, Ragweed",[10]; [18],60
same,"Plant response rating, Ragweed",[10]; [19],5
same,"Plant response rating, Ragweed",[10]; [20],5
same,"Plant response rating, Ragweed",[10]; [21],20
same,"Plant response rating, Ragweed",[10]; [22],50
FC(F)Oc1nn(-c2ccc(C(F)(F)F)cc2)nc1Cc1ccnc(C(F)(F)F)c1 [Compound 26],Corn plant response rating,[1]; [11],30
same,Corn plant response rating,[1]; [12],40
same,"Plant response rating, Corn",[1]; [13],30
same,"Plant response rating, Corn",[1]; [14],50
same,"Plant response rating, Kochia",[2]; [15],75
same,"Plant response rating, Kochia",[2]; [16],95
same,"Plant response rating, Kochia",[2]; [17],95
same,"Plant response rating, Kochia",[2]; [18],98
same,"Plant response rating, Kochia",[2]; [19],45
same,"Plant response rating, Kochia",[2]; [20],95
same,"Plant response rating, Kochia",[2]; [21],95
same,"Plant response rating, Kochia",[2]; [22],98
same,Barnyardgrass plant response rating,[3]; [11],80
same,Barnyardgrass plant response rating,[3]; [12],90
same,"Plant response rating, Barnyardgrass",[3]; [13],90
same,"Plant response rating, Barnyardgrass",[3]; [14],90
same,"Plant response rating, Lambsquarters",[4]; [15],80
same,"Plant response rating, Lambsquarters",[4]; [16],95
same,"Plant response rating, Lambsquarters",[4]; [17],98
same,"Plant response rating, Lambsquarters",[4]; [18],98
same,"Plant response rating, Lambsquarters",[4]; [19],70
same,"Plant response rating, Lambsquarters",[4]; [20],98
same,"Plant response rating, Lambsquarters",[4]; [21],98
same,"Plant response rating, Lambsquarters",[4]; [22],100
same,"Plant response rating, Johnsongrass",[5]; [15],15
same,"Plant response rating, Johnsongrass",[5]; [16],15
same,"Plant response rating, Johnsongrass",[5]; [17],25
same,"Plant response rating, Johnsongrass",[5]; [18],40
same,"Plant response rating, Johnsongrass",[5]; [19],15
same,"Plant response rating, Johnsongrass",[5]; [20],55
same,"Plant response rating, Johnsongrass",[5]; [21],95
same,"Plant response rating, Johnsongrass",[5]; [22],98
same,"Plant response rating, Velvetleaf",[6]; [15],25
same,"Plant response rating, Velvetleaf",[6]; [16],50
same,"Plant response rating, Velvetleaf",[6]; [17],55
same,"Plant response rating, Velvetleaf",[6]; [18],85
same,"Plant response rating, Velvetleaf",[6]; [19],25
same,"Plant response rating, Velvetleaf",[6]; [20],35
same,"Plant response rating, Velvetleaf",[6]; [21],75
same,"Plant response rating, Velvetleaf",[6]; [22],100
same,"Plant response rating, Galium",[7]; [15],50
same,"Plant response rating, Galium",[7]; [16],55
same,"Plant response rating, Galium",[7]; [17],75
same,"Plant response rating, Galium",[7]; [18],75
same,"Plant response rating, Galium",[7]; [19],50
same,"Plant response rating, Galium",[7]; [20],75
same,"Plant response rating, Galium",[7]; [21],100
same,"Plant response rating, Galium",[7]; [22],100
same,"Plant response rating, Rice (0 to 100 scale, 0 is no effect, 100 is complete control)",[8],80
same,Morningglory plant response rating,[9]; [11],100
same,Morningglory plant response rating,[9]; [12],100
same,"Plant response rating, Morningglory",[9]; [13],80
same,"Plant response rating, Morningglory",[9]; [14],80
same,"Plant response rating, Ragweed",[10]; [15],40
same,"Plant response rating, Ragweed",[10]; [16],55
same,"Plant response rating, Ragweed",[10]; [17],90
same,"Plant response rating, Ragweed",[10]; [18],95
same,"Plant response rating, Ragweed",[10]; [19],15
same,"Plant response rating, Ragweed",[10]; [20],35
same,"Plant response rating, Ragweed",[10]; [21],50
same,"Plant response rating, Ragweed",[10]; [22],75
FC(F)(F)c1ccc(-n2nc(Cl)c(Cc3ccnc(C(F)(F)F)c3)n2)cc1 [Compound 28],Corn plant response rating,[1]; [11],30
same,Corn plant response rating,[1]; [12],50
same,"Plant response rating, Corn",[1]; [13],20
same,"Plant response rating, Corn",[1]; [14],20
same,"Plant response rating, Kochia",[2]; [15],40
same,"Plant response rating, Kochia",[2]; [16],65
same,"Plant response rating, Kochia",[2]; [17],75
same,"Plant response rating, Kochia",[2]; [18],95
same,Barnyardgrass plant response rating,[3]; [11],70
same,Barnyardgrass plant response rating,[3]; [12],90
same,"Plant response rating, Barnyardgrass",[3]; [13],50
same,"Plant response rating, Barnyardgrass",[3]; [14],90
same,"Plant response rating, Lambsquarters",[4]; [15],35
same,"Plant response rating, Lambsquarters",[4]; [16],35
same,"Plant response rating, Lambsquarters",[4]; [17],95
same,"Plant response rating, Lambsquarters",[4]; [18],95
same,"Plant response rating, Johnsongrass",[5]; [15],5
same,"Plant response rating, Johnsongrass",[5]; [16],5
same,"Plant response rating, Johnsongrass",[5]; [17],5
same,"Plant response rating, Johnsongrass",[5]; [18],10
same,"Plant response rating, Velvetleaf",[6]; [15],20
same,"Plant response rating, Velvetleaf",[6]; [16],25
same,"Plant response rating, Velvetleaf",[6]; [17],35
same,"Plant response rating, Velvetleaf",[6]; [18],50
same,"Plant response rating, Galium",[7]; [15],40
same,"Plant response rating, Galium",[7]; [16],55
same,"Plant response rating, Galium",[7]; [17],70
same,"Plant response rating, Galium",[7]; [18],80
same,"Plant response rating, Rice (0 to 100 scale, 0 is no effect, 100 is complete control)",[8],80
same,Morningglory plant response rating,[9]; [11],100
same,Morningglory plant response rating,[9]; [12],100
same,"Plant response rating, Morningglory",[9]; [13],20
same,"Plant response rating, Ragweed",[10]; [15],35
same,"Plant response rating, Ragweed",[10]; [16],60
same,"Plant response rating, Ragweed",[10]; [18],85
